# Source: patent publication US10131652B2, “Pyrimidinyloxy benzene derivatives as herbicides” (E. I. DU PONT DE NEMOURS AND COMPANY, priority 2014, dated 2018)
# Where two headings read alike, the source gives them in different places.
# Experiments:
# Assay type in all cases: in vivo
# [1] = test system: morningglory (Ipomoea spp.); assay: Test B pre-/postemergence plant response; details: Ipomoea, 240 h, read-out: Plant response rating, Morningglory; for pest or weed control at 125 g/ha: 125 g ai/ha; for pest or weed control at 500 g/ha: 500 g ai/ha
# In short: (§1)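 Ratings reflect visual injury versus untreated controls, from 0 for no effect to 100 for complete control, assessed roughly 10 days after treatment. Formulation: non-phytotoxic solvent mix with surfactant; pre- and postemergence sprays on plants grown in loam soil and sand.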
# [2] = test system: velvetleaf (Abutilon theophrasti); assay: Test B pre-/postemergence plant response; details: Abutilon theophrasti, 240 h, read-out: Plant response rating, Velvetleaf; for pest or weed control at 125 g/ha: 125 g ai/ha; for pest or weed control at 500 g/ha: 500 g ai/ha
# In short: as §1
# [3] = test system: large (Lg) crabgrass (Digitaria sanguinalis); assay: Test B pre-/postemergence plant response; details: Digitaria sanguinalis, 240 h, read-out: Plant response rating, Crabgrass, Large; for pest or weed control at 125 g/ha: 125 g ai/ha; for pest or weed control at 500 g/ha: 500 g ai/ha
# In short: as §1
# wild oat (Avena fatua) = assay: Test D postemergence plant response
# In short: (§2)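 Scores reflect visual plant response relative to untreated controls on a 0 to 100 scale, where 100 means complete control. Treatment was postemergence on 2–18 cm plants in peat-based potting medium, with greenhouse assessment 13–15 days later.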
# [4] = test system: chickweed (common chickweed, Stellaria media); assay: Test D postemergence plant response
# In short: as §2
# kochia (Kochia scoparia) = assay: Test D postemergence plant response
# In short: as §2
# [5] = test system: blackgrass (Alopecurus myosuroides); assay: Test B postemergence plant response
# In short: (§3)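 Seedlings in a loam soil and sand mix received a postemergence application of the formulated chemicals at the one- to two-leaf stage (2–10 cm tall). They were kept in a greenhouse for roughly 10 days, then scored for injury relative to untreated plants, 0 meaning no effect and 100 complete control.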
# [6] = test system: galium (catchweed bedstraw, Galium aparine); assay: Test B postemergence plant response
# In short: as §3
# [7] = post-emergence, postemergence, 0 to 100 scale, 0 no effect, 100 complete control
# [8] = post-emergence, Postemergence, 0 to 100 scale (0 no effect, 100 complete control)
# [9] = pre-emergence, Preemergence, 0 to 100 scale where 0 is no effect and 100 is complete control
# [10] = 125 g ai/ha, postemergence, 0 to 100 scale, 0 no effect, 100 complete control
# [11] = Postemergence, 31 g ai/ha, 0 to 100 scale (0 no effect, 100 complete control)
# [12] = 31 g ai/ha, scale 0 to 100 (0 no effect, 100 complete control)
# [13] = 62 g ai/ha, scale 0 to 100, 0 no effect, 100 complete control
# [14] = 125 g ai/ha, scale 0 to 100, 0 no effect, 100 complete control
structure (smiles),measurement,setting,value
"FC(F)(F)c1cc(-c2ccccc2Oc2ncc(Cl)cn2)on1 [Compound 63, 5-chloro-2-[2-[3-(trifluoromethyl)-5-isoxazolyl]phenoxy]pyrimidine]",pest or weed control at 125 g/ha,[1]; [7],100%
same,pest or weed control at 500 g/ha,[1]; [8],100%
same,pest or weed control at 125 g/ha,[1]; [9],30%
same,pest or weed control at 500 g/ha,[1]; [9],60%
same,pest or weed control at 125 g/ha,[2]; [7],100%
same,pest or weed control at 500 g/ha,[2]; [8],100%
same,pest or weed control at 125 g/ha,[2]; [9],70%
same,pest or weed control at 500 g/ha,[2]; [9],90%
same,pest or weed control at 125 g/ha,[3]; [7],80%
same,pest or weed control at 500 g/ha,[3]; [8],90%
same,pest or weed control at 125 g/ha,[3]; [9],100%
same,pest or weed control at 500 g/ha,[3]; [9],100%
same,pest or weed control at 16 g/ha,"wild oat (Avena fatua); Avena fatua, post-emergence, 16 g ai/ha, scale 0 to 100 (0 no effect, 100 complete control), read-out: Oat, Wild plant response rating",0%
same,pest or weed control at 31 g/ha,"wild oat (Avena fatua); Avena fatua, post-emergence, 31 g ai/ha, scale 0 to 100 (0 no effect, 100 complete control), read-out: Oat, Wild plant response rating",20%
same,pest or weed control at 62 g/ha,"wild oat (Avena fatua); Avena fatua, post-emergence, 62 g ai/ha, scale 0 to 100, 0 no effect, 100 complete control, read-out: Plant response rating, Oat, Wild",25%
same,pest or weed control at 125 g/ha,"wild oat (Avena fatua); Avena fatua, post-emergence, 125 g ai/ha, scale 0 to 100, 0 no effect, 100 complete control, read-out: Plant response rating, Oat, Wild",35%
same,pest or weed control at 16 g/ha,"[4]; Stellaria media, post-emergence, 16 g ai/ha, scale 0 to 100 (0 no effect, 100 complete control), read-out: Chickweed plant response rating",60%
same,pest or weed control at 31 g/ha,"[4]; Stellaria media, post-emergence, 31 g ai/ha, scale 0 to 100 (0 no effect, 100 complete control), read-out: Chickweed plant response rating",65%
same,pest or weed control at 62 g/ha,"[4]; Stellaria media, post-emergence, 62 g ai/ha, scale 0 to 100, 0 no effect, 100 complete control, read-out: Plant response rating, Chickweed",98%
same,pest or weed control at 125 g/ha,"[4]; Stellaria media, post-emergence, 125 g ai/ha, scale 0 to 100, 0 no effect, 100 complete control, read-out: Plant response rating, Chickweed",100%
same,pest or weed control at 16 g/ha,"kochia (Kochia scoparia); Bassia scoparia, post-emergence, 16 g ai/ha, scale 0 to 100 (0 no effect, 100 complete control), read-out: Kochia plant response rating",90%
same,pest or weed control at 31 g/ha,"kochia (Kochia scoparia); Bassia scoparia, post-emergence, 31 g ai/ha, scale 0 to 100 (0 no effect, 100 complete control), read-out: Kochia plant response rating",95%
same,pest or weed control at 62 g/ha,"kochia (Kochia scoparia); Bassia scoparia, post-emergence, 62 g ai/ha, scale 0 to 100, 0 no effect, 100 complete control, read-out: Plant response rating, Kochia",98%
same,pest or weed control at 125 g/ha,"kochia (Kochia scoparia); Bassia scoparia, post-emergence, 125 g ai/ha, scale 0 to 100, 0 no effect, 100 complete control, read-out: Plant response rating, Kochia",100%
Fc1cccc(Oc2ncc(Cl)cn2)c1-c1cc(C(F)(F)F)no1 [Compound 228],"Plant response rating, Blackgrass",[5]; [10],100
same,"Plant response rating, Blackgrass",[5]; [11],60
same,"Plant response rating, Galium",[6]; [10],100
same,"Plant response rating, Galium",[6]; [11],100
same,"Plant response rating (scale 0 to 100), Oat, Wild",wild oat (Avena fatua); 16 g ai/ha,10
same,"Oat, Wild plant response rating",wild oat (Avena fatua); [12],20
same,"Oat, Wild plant response rating",wild oat (Avena fatua); [13],40
same,"Plant response rating, Oat, Wild",wild oat (Avena fatua); [14],55
same,"Plant response rating (scale 0 to 100), Chickweed",[4]; 16 g ai/ha,85
same,Chickweed plant response rating,[4]; [12],85
same,"Plant response rating, Chickweed",[4]; [13],98
same,"Plant response rating, Chickweed",[4]; [14],100
same,"Plant response rating (scale 0 to 100), Kochia",kochia (Kochia scoparia); 16 g ai/ha,100
same,Kochia plant response rating,kochia (Kochia scoparia); [12],100
same,"Plant response rating, Kochia",kochia (Kochia scoparia); [13],100
same,"Plant response rating, Kochia",kochia (Kochia scoparia); [14],100
Cc1cc(-c2c(F)cccc2Oc2ncc(Cl)cn2)on1 [Compound 229],"Plant response rating, Blackgrass",[5]; [10],80
same,"Plant response rating, Blackgrass",[5]; [11],30
same,"Plant response rating, Galium",[6]; [10],100
same,"Plant response rating, Galium",[6]; [11],80
same,"Plant response rating (scale 0 to 100), Oat, Wild",wild oat (Avena fatua); 16 g ai/ha,0
same,"Oat, Wild plant response rating",wild oat (Avena fatua); [12],10
same,"Oat, Wild plant response rating",wild oat (Avena fatua); [13],10
same,"Plant response rating, Oat, Wild",wild oat (Avena fatua); [14],10
same,"Plant response rating (scale 0 to 100), Chickweed",[4]; 16 g ai/ha,60
same,Chickweed plant response rating,[4]; [12],60
same,"Plant response rating, Chickweed",[4]; [13],80
same,"Plant response rating, Chickweed",[4]; [14],85
same,"Plant response rating (scale 0 to 100), Kochia",kochia (Kochia scoparia); 16 g ai/ha,85
same,Kochia plant response rating,kochia (Kochia scoparia); [12],90
same,"Plant response rating, Kochia",kochia (Kochia scoparia); [13],98
same,"Plant response rating, Kochia",kochia (Kochia scoparia); [14],98
Cc1cc(-c2c(F)cccc2Oc2ncc(Br)cn2)on1 [Compound 230],"Plant response rating, Blackgrass",[5]; [10],70
same,"Plant response rating, Blackgrass",[5]; [11],20
same,"Plant response rating, Galium",[6]; [10],100
same,"Plant response rating, Galium",[6]; [11],80
same,"Plant response rating (scale 0 to 100), Oat, Wild",wild oat (Avena fatua); 16 g ai/ha,0
same,"Oat, Wild plant response rating",wild oat (Avena fatua); [12],0
same,"Oat, Wild plant response rating",wild oat (Avena fatua); [13],5
same,"Plant response rating, Oat, Wild",wild oat (Avena fatua); [14],10
same,"Plant response rating (scale 0 to 100), Chickweed",[4]; 16 g ai/ha,65
same,Chickweed plant response rating,[4]; [12],65
same,Chickweed plant response rating,[4]; [13],75
same,"Plant response rating, Chickweed",[4]; [14],80
same,"Plant response rating (scale 0 to 100), Kochia",kochia (Kochia scoparia); 16 g ai/ha,65
same,Kochia plant response rating,kochia (Kochia scoparia); [12],85
same,Kochia plant response rating,kochia (Kochia scoparia); [13],100
same,"Plant response rating, Kochia",kochia (Kochia scoparia); [14],100
